The values that follow come from patent US12492188B2, “1H-benzo[D]imidazole derivatives as TLR9 inhibitors for the treatment of fibrosis” (BRISTOL-MYERS SQUIBB COMPANY, priority 2020, dated 2025).

This experiment concerns the target T1, human TLR9 (Homo sapiens, UniProt Q9NR96).
T1 construct: host or cells: HEK-Blue cells (HEK293-derived reporter line)
T1 sequence (Q9NR96 26-1032): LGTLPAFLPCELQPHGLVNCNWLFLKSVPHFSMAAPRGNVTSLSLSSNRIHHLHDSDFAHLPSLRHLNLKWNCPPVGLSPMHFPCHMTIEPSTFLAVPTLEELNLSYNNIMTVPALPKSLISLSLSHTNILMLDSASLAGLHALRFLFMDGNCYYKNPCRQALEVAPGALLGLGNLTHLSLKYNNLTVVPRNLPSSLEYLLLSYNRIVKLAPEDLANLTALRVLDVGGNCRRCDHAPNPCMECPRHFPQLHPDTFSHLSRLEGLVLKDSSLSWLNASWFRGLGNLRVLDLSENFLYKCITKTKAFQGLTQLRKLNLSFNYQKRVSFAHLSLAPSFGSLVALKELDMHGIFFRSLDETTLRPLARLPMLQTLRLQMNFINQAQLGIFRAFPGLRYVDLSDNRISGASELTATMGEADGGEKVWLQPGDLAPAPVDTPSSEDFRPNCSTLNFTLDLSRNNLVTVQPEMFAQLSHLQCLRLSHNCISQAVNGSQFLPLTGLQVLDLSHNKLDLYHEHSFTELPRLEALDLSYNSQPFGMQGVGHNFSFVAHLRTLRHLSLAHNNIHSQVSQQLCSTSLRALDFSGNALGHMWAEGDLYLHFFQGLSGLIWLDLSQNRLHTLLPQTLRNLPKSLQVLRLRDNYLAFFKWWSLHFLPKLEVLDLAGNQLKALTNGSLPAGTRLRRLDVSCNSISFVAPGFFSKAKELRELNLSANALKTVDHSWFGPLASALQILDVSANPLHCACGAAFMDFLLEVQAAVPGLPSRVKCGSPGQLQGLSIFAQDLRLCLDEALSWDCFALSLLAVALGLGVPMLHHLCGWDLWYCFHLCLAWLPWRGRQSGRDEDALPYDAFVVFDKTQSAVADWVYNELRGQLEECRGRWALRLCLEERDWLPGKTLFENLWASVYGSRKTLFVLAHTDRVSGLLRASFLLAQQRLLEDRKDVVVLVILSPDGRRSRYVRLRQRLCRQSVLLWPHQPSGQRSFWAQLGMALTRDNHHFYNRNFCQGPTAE
The experiment can be described thus: TLR9 inhibition reporter assay (HEK-Blue cells, secreted embryonic alkaline phosphatase reporter). The format is cell-based. On the procedure: TLR7/8/9 Inhibition Reporter Assays
HEK-Blue™-cells (Invivogen) overexpressing human TLR7, TLR8 or TLR9 receptors were used for screening inhibitors of these receptors using an inducible SLAP (secreted embryonic alkaline phosphatase) reporter gene under the control of the […] minimal promoter fused to five NF-κB and AP-1-binding sites. Briefly, cells are seeded into Greiner 384 well plates (15000 cells per well for TLR7, 20,000 for TLR8 and 25,000 for TLR9) and then treated with test compounds in DMSO to yield a final dose response concentration range of 0.05 nM-50 μM. After a 30 minute compound pre-treatment at room temperature, the cells are then stimulated with a TLR7 ligand (gardiquimod at a final concentration of 7.5 μM), TLR8 ligand (R848 at a final concentration of 15.9 μM) or TLR9 ligand (ODN2006 at a final concentration of 5 nM) to activate NF-κB and AP-1 which induce the production of SLAP. After a 22 hour incubation at 37° C., […], SLAP levels are determined with the addition of HEK-Blue™ Detection reagent (Invivogen), a cell culture medium that allows for detection of SLAP, according to manufacturer's specifications. The percent inhibition is determined as the […] in the HEK-Blue signal present in wells treated with agonist plus DMSO alone compared to wells treated with a known inhibitor.

[1] abbreviates: HEK-Blue cells overexpressing human TLR9, stimulated with ODN2006 5 nM, 22 hour incubation, reporter readout.
[2] abbreviates: HEK-Blue cells overexpressing human TLR9, stimulated with ODN2006 5 nM, read-out: TLR 9 IC50.
The mark [3] stands for this setting: HEK-Blue human TLR9 reporter cells.

Molecules are shown by their SMILES. pIC50: −log10 of the molar value. Where two headings read alike, the source gives them in different places.

Consider `Cc1cc(C2CCN(C3CCN(CC(C)C)CC3)CC2)cc2[nH]c(-c3cnc4[nH]ccc4c3)nc12` [Example 81, 6-(1′-isobutyl-[1,4′-bipiperidin]-4-yl)-4-methyl-2-(1H-pyrrolo[2,3-b]pyridin-5-yl)-1H-benzo[d]imidazole], for which the pIC50 is 7.31 under setting [1] and 7.31 under setting [2].
Consider `Cc1cc(C2CCN(C3CC4CCC(C3)N4C(C)C)CC2)cc2[nH]c(-c3ccc(S(C)(=O)=O)c(F)c3)nc12` (stereo not shown) [Example 348, 2-(3-fluoro-4-(methylsulfonyl)phenyl)-6-(1-(8-isopropyl-8-azabicyclo[3.2.1]octan-3-yl)piperidin-4-yl)-4-methyl-1H-benzo[d]imidazole], for which the pIC50 reads like this: under setting [2], 6.74; under setting [3], 6.74.
Turning to `COc1cc(-c2nc3c(C)cc(C4CCN(C5CCN(CC(C)C)CC5)CC4)cc3[nH]2)cn2ncnc12` [Example 61, 6-(6-(1′-isobutyl-[1,4′-bipiperidin]-4-yl)-4-methyl-1H-benzo[d]imidazol-2-yl)-8-methoxy-[1,2,4]triazolo[1,5-a]pyridine tris(2,2,2-trifluoroacetate)], the pIC50 was 7.31 under setting [1] and 7.31 under setting [2].
Take `Cc1cc(C2CCN(C3CCN(CC(C)C)CC3)CC2)cc2[nH]c(-c3cccc4ncccc34)nc12` [Example 72, 5-(6-(1′-isobutyl-[1,4′-bipiperidin]-4-yl)-4-methyl-1H-benzo[d]imidazol-2-yl)quinoline tris(2,2,2-trifluoroacetate)]: the pIC50 under setting [1] is 7.06 and the pIC50 under setting [2] was 7.06.
In the case of `Cc1cc(-c2ccc(N3CCN(CC(C)C)CC3)cc2)cc2c1nc(-c1ccc(S(C)(=O)=O)cc1)n2C` [Example 170, 6-(4-(4-isobutylpiperazin-1-yl)phenyl)-1,4-dimethyl-2-(4-(methylsulfonyl)phenyl)-1H-benzo[d]imidazole], the pIC50 was 5.36. The negative logarithm of the IC50 (pIC50) under setting [2] was 5.35.
Consider `Cc1cc(C2CCN(C3CCN(CC(C)C)CC3)CC2)cc2[nH]c(-c3ccc4cnccc4c3)nc12` [Example 74, 6-(6-(1′-isobutyl-[1,4′-bipiperidin]-4-yl)-4-methyl-1H-benzo[d]imidazol-2-yl)isoquinoline], for which the negative logarithm of the IC50 (pIC50) under setting [1] was 7.43 and the negative-log IC50 (pIC50) under setting [2] is 7.43.
On to `Cc1cc(C2CCN(C3CC4CCC(C3)N4CC3CC3)CC2)cc2c1nc(-c1ccc(S(C)(=O)=O)c(F)c1)n2C` (stereo not shown) [Example 340, 6-(1-(8-(cyclopropylmethyl)-8-azabicyclo[3.2.1]octan-3-yl)piperidin-4-yl)-2-(3-fluoro-4-(methylsulfonyl)phenyl)-1,4-dimethyl-1H-benzo[d]imidazole], for which the pIC50 is 7.08 under setting [2] and 7.08 under setting [3].
With `CC(C)CN1CC2(CN(Cc3ccc(-c4cc(F)c5nc(-c6ccc(S(C)(=O)=O)cc6)n(C6CC6)c5c4)cc3)C2)C1` [Example 411, 1-cyclopropyl-4-fluoro-6-(4-((6-isobutyl-2,6-diazaspiro[3.3]heptan-2-yl)methyl)phenyl)-2-(4-(methylsulfonyl)phenyl)-1H-benzo[d]imidazole], the pIC50 under setting [1] was 9.07 and the pIC50 under setting [2] is 9.05.
Consider `COc1ccc(-c2nc3c(C)cc(C4CCN(C5CC6CCC(C5)N6C5CCC5)CC4)cc3n2C)cc1OC` (stereo not shown) [Example 147, 6-(1-(8-cyclobutyl-8-azabicyclo[3.2.1]octan-3-yl)piperidin-4-yl)-2-(3,4-dimethoxyphenyl)-1,4-dimethyl-1H-benzo[d]imidazole], for which the pIC50 is 6.70. In addition, under setting [2], the negative-log IC50 (pIC50) is 6.70.
For the compound `Cc1c(C2CCN(C3CCN(C(C)C)CC3)CC2)ccc2nc(-c3ccc(S(C)(=O)=O)cc3)n(C)c12` [Example 119, 6-(1′-isopropyl-[1,4′-bipiperidin]-4-yl)-1,7-dimethyl-2-(4-(methylsulfonyl)phenyl)-1H-benzo[d]imidazole], the pIC50 runs as follows: under setting [1], 5.96; under setting [2], 5.96.
Take `Cc1cc(C2CCN(C3CCN(CC(C)C)CC3)CC2)cc2[nH]c(-c3nccs3)nc12` [Example 79, 2-(6-(1′-isobutyl-[1,4′-bipiperidin]-4-yl)-4-methyl-1H-benzo[d]imidazol-2-yl)thiazole]: the negative logarithm of the IC50 (pIC50) was 6.96 under setting [1] and 6.95 under setting [2].
The compound `Cc1cc(C2CCN(C3CC4(C3)CN(CC3CCC3)C4)CC2)cc2c1nc(-c1ccc(S(C)(=O)=O)cc1)n2C` [Example 143, 6-(1-(2-(cyclobutylmethyl)-2-azaspiro[3.3]heptan-6-yl)piperidin-4-yl)-1,4-dimethyl-2-(4-(methylsulfonyl)phenyl)-1H-benzo[d]imidazole] had a pIC50 of 7.07. In addition, under setting [2], the pIC50 was 7.07.
`Cc1cc(C2CCN(C3CCCN(CC(C)C)CC3)CC2)cc2c1nc(-c1ccc(S(C)(=O)=O)cc1)n2C` (stereo not shown) [Example 136, 6-(1-(1-isobutylazepan-4-yl)piperidin-4-yl)-1,4-dimethyl-2-(4-(methylsulfonyl)phenyl)-1H-benzo[d]imidazole] gave a pIC50 of 6.85. In addition, the negative logarithm of the IC50 (pIC50) under setting [2] was 6.87.
As to `Cc1cc(C2CCN(C3CCN(CC(C)C)CC3)CC2)cc2[nH]c(-c3ccc(OC(F)(F)F)cc3)nc12` [Example 63, 6-(1′-isobutyl-[1,4′-bipiperidin]-4-yl)-4-methyl-2-(4-(trifluoromethoxy)phenyl)-1H-benzo[d]imidazole], the pIC50 under setting [1] is 6.70 and the pIC50 under setting [2] was 6.71.
In turn, `COc1ccc(-c2nc3c(F)cc(C4CCN(C5CCN(C6CC6)CC5)CC4)cc3[nH]2)cc1OC` [Example 128, 6-(1′-cyclopropyl-[1,4′-bipiperidin]-4-yl)-2-(3,4-dimethoxyphenyl)-4-fluoro-1H-benzo[d]imidazole] gave a pIC50 of 6.57. The pIC50 under setting [2] was 6.57.
For the compound `COc1cc(-c2nc3c(C)cc(C4CCN(C5CC6CCC(C5)N6C5CCC5)CC4)cc3[nH]2)cn2ncnc12` (stereo not shown) [Example 361, 6-(6-(1-(8-cyclobutyl-8-azabicyclo[3.2.1]octan-3-yl)piperidin-4-yl)-4-methyl-1H-benzo[d]imidazol-2-yl)-8-methoxy-[1,2,4]triazolo[1,5-a]pyridine], the pIC50 is, setting by setting: under setting [2], 7.70; under setting [3], 7.68.
On to `CS(=O)(=O)c1ccc(-c2nc3c(F)cc(-c4ccc(CN5CC6(C5)CN(C5CCOCC5)C6)cc4)cc3n2C2CC2)cc1` [Example 412, 1-cyclopropyl-4-fluoro-2-(4-(methylsulfonyl)phenyl)-6-(4-((6-(tetrahydro-2H-pyran-4-yl)-2,6-diazaspiro[3.3]heptan-2-yl)methyl)phenyl)-1H-benzo[d]imidazole], for which the pIC50 reads like this: under setting [1], 7.11; under setting [2], 7.11.
Consider `COCCN1CCN(c2ccc(-c3cc(C)c4nc(-c5ccc(S(C)(=O)=O)cc5)n(C)c4c3)cc2)CC1` [Example 173, 6-(4-(4-(2-methoxyethyl)piperazin-1-yl)phenyl)-1,4-dimethyl-2-(4-(methylsulfonyl)phenyl)-1H-benzo[d]imidazole], for which the pIC50 is 5.96. The pIC50 under setting [2] is 5.95.
In the case of `Cc1cc(-c2ccc(CCN3CCC(C)(O)CC3)cc2)cc2c1nc(-c1ccc(S(C)(=O)=O)cc1)n2C` [Example 366, 1-(4-(1,4-dimethyl-2-(4-(methylsulfonyl)phenyl)-1H-benzo[d]imidazol-6-yl)phenethyl)-4-methylpiperidin-4-ol], the pIC50 was 6.35 under setting [1] and 6.35 under setting [2].
Take `COc1ccc(-c2nc3c(C)cc(C4CCN(C5CC6CCC(C5)N6CC5CCC5)CC4)cc3n2C)cc1OC` (single isomer, unassigned) [Example 150, 6-(1-(8-(cyclobutylmethyl)-8-azabicyclo[3.2.1]octan-3-yl)piperidin-4-yl)-2-(3,4-dimethoxyphenyl)-1,4-dimethyl-1H-benzo[d]imidazole]: the pIC50 was 7.49. Also, the pIC50 under setting [2] is 7.49.
